This note sets out measurements from patent publication US9249154B2, “Compounds and therapeutic use thereof for protein kinase inhibition” (priority 2008, dated 2016).

Like-named read-outs stand apart in the source and are kept apart here.

Experiment [1] concerns transplanted human colon cancer HT-99. In words: Effects on HT99 transplanted nude mice. In kind it is in vivo. The settings on record: 60 mg/kg ip, d0, 1; for RTV (relative tumor volume) / TV dn: X ± SD; for TV dn: dn = 17 days after drug treatment.
Experiment [2] has as its system Human Gastric Cancer (BGC-823). In words: In vitro anti-cancer cell activity (cellular toxicity, SRB and MTT methods, 72 hours). In kind it is cell-based. The conditions noted are these: read-out: In vitro anti-cancer cell activities IC50, Human Gastric Cancer (BGC-823).
Experiment [3] relates to Human Ovarian cancer (A2780). The experiment is described as above. It is filed as cell-based. The conditions noted are these: read-out: In vitro anti-cancer cell activities IC50, Human Ovarian cancer (A2780).
The test system of experiment [4] is Human colon cancer HT-29. Described as above. In kind it is cell-based. The conditions noted are these: read-out: In vitro anti-cancer cell activities IC50, Human colon cancer HT-29.
In experiment [5] the test system is Mouse Lung Cancer (3LL). Described as above. The settings on record: read-out: In vitro anti-cancer cell activities IC50, Mouse Lung Cancer (3LL). It is filed as cell-based.

For the molecule “2-(4-chlorophenyl)-4-(3-α-thiapyranmethy)-thieno[2,3-d]pyridazine-7-carboxylic acid amide [Compound 11]”, in experiment [1], the T/C was found to be 113.4%. Further, the “RTV (relative tumor volume)” value in experiment [1] is recorded as 7.52 ± 0.26. In experiment [1], this molecule came in with a TV dn of 1224 ± 440 mm^3. The IC50 in experiment [2] was 9.24 µM; in experiment [3], 11.8 µM; in experiment [4], 10.7 µM; in experiment [5], 8.43 µM.

In the case of `NC(=O)c1nnc(CC2CCNCC2)c2cc(-c3ccc(Cl)cc3)sc12` [Compound 5, 2-(4-chlorophenyl)-4-(4-piperidinemethy)-thieno[2,3-d]pyridazine-7-carboxylic acid amide], in experiment [1], the T/C came out at 96.5%, the “RTV (relative tumor volume)” value turned out to be 6.40 ± 0 and the TV dn worked out at 910 ± 0 mm^3.

On to `NC(=O)c1nnc(Cc2ccncc2)c2cc(-c3ccc(Cl)cc3)sc12` [Compound 13, 2-(4-chlorophenyl)-4-(4-pyridinemethy)-thieno[2,3-d]pyridazine-7-carboxylic acid amide], for which the IC50 in experiment [2] came out at 2.62 µM; in experiment [3] it was 1.18 µM; in experiment [4] it was 0.73 µM; in experiment [5] it was 1.24 µM.

For `NC(=O)c1nnc(Cc2cc[nH]c2)c2cc(-c3ccc(Cl)cc3)sc12` [Compound 14, 2-(4-chlorophenyl)-4-(3-pyrrolemethy)-thieno[2,3-d]pyridazine-7-carboxylic acid amide], the IC50 came to 30.5 µM in experiment [2], 6.01 µM in experiment [3], 16.8 µM in experiment [4] and 8.59 µM in experiment [5].

Regarding `NC(=O)c1nnc(Cc2ccoc2)c2cc(-c3ccc(Cl)cc3)sc12` [Compound 15, 2-(4-chlorophenyl)-4-(3-furanmethy)-thieno[2,3-d]pyridazine-7-carboxylic acid amide], the IC50 in experiment [2] was determined as 2.25 µM.

On to `CN(C)C(=O)c1nnc(CC2CCCOC2)c2cc(-c3ccc(Cl)cc3)sc12` (centres unmarked) [Compound 19], for which, in experiment [1], the T/C was 68.3%, the “RTV (relative tumor volume)” value worked out at 4.53 ± 0.82 and the TV dn stood at 663 ± 86 mm^3.

On to `NC(=O)c1nnc(CC2CCNC2)c2cc(-c3ccc(Br)cc3)sc12` (centres unmarked) [Compound 22], for which, in experiment [1], the T/C is given as 70.7%, the “RTV (relative tumor volume)” value turned out to be 4.69 ± 0.71 and the TV dn is reported as 714 ± 127 mm^3.

On to `NC(=O)c1nnc(CC2CCOC2)c2cc(-c3ccc(F)cc3)sc12` (centres unmarked) [Compound 23], for which the IC50 in experiment [5] (Mus musculus) is greater than 100 µM.

`NC(=O)c1nnc(CC2CCOC2)c2cc(-c3ccc(Cl)cc3)sc12` (centres unmarked) [Compound 24]: the IC50 is 24.6 µM in experiment [2] (Homo sapiens), greater than 100 µM in experiment [3] (Homo sapiens), greater than 100 µM in experiment [4] (Homo sapiens) and greater than 100 µM in experiment [5] (Mus musculus).

For `NC(=O)c1nnc(CC2CCNC2)c2cc(-c3ccc(Cl)cc3)sc12` (centres unmarked) [Compound 30], in experiment [1], the T/C stood at 57.0%, the “RTV (relative tumor volume)” value came out at 3.78 ± 1.09 and the TV dn amounted to 482 ± 83 mm^3.

With `NC(=O)c1nnc(CC2CCNC2)c2cc(-c3ccc(Cl)cc3)sc12` (centres unmarked) [Compound 31], in experiment [1], the T/C worked out at 80.8%, the “RTV (relative tumor volume)” value amounted to 5.36 ± 1.94 and the TV dn was found to be 785 ± 300 mm^3.

On to `NC(=O)c1nnc(Cc2cccnc2)c2cc(-c3ccc(F)cc3)sc12` [Compound 38], for which the IC50 in experiment [5] (Mus musculus) amounted to 3.13 µM.

Take `CN(C)C(=O)c1nnc(Cc2ccoc2)c2cc(-c3ccc(Cl)cc3)sc12` [Compound 70]: the IC50 in experiment [5] (Mus musculus) is greater than 100 µM.
